Tests used:
[1] = tested on: GAPDH promoter in MCF7shctrl cells; assay: ChIP-qPCR of H3 acetylation and Tau occupancy on the GAPDH promoter; type: cell-based, human; settings: 100 nM TSA, GAPDH transcription start site
Source text: (A) Chromatin immunoprecipitations-qPCR analysis of H3 acetylation and Tau occupancy on the GAPDH promoter in MCF7shctrl cells in the indicated conditions. MCF7shctrl cells were subjected to cross-linking by 1% formaldehyde. Chromatin fragments were then immunoprecipitated using antibodies (Ab) against acetylated H3 (ac-H3) or Tau and analyzed by quantitative PCR for the presence of the GAPDH promoter. (B) Functional organization of the p21 promoter. (C) ChIP-qPCR analysis of H3 acetylation in MCF7shctrl or shTau cells or (D) Tau occupancy in MCF7shctrl cells on the p21 promoter. […] Chromatin fragments were then immunoprecipitated using antibodies (Ab) against acetylated H3 or Tau and analyzed by quantitative PCR for the presence of the GAL4 UAS promoter. Quantification of enrichment is represented as fold-enrichment relative to IgG. […]
To test this hypothesis, we next performed chromatin immunoprecipitations assays. […] Quantitative PCR analysis of input or immunoprecipitated DNA using acetylated H3 and Tau antibodies was carried out to detect different promoter regions. […] No change in the level of acetylated H3, nor Tau binding, were detected after TSA treatment (FIG. 3A). […] In addition, Tau was detected at the level of these regions in MCF7shctrl cells (≈4-fold enrichment) in absence or presence of TSA treatment (FIG. 3D).

[2] = tested on: breast cancer cell lines; assay: Preliminary experiments: lowest dose of TSA inducing cellular responses; type: cell-based, human
Procedure: To dissect the role of Tau in controlling chromatin we sought to perturb chromatin structure by inhibiting histone deacetylation with the pan-histone deacetylase-inhibitor trichostatin A (TSA). In our preliminary experiments we found the lowest dose of TSA inducing cellular responses was 100 nM and we used this concentration in all the following experiments. First, we evaluated cell death, apoptosis and cell cycle progression by flow cytometric analyses in the two cell lines (as above we just illustrate our results with MCF7 cells in the main paper). We tested the effect of TSA in the presence or absence of short hairpin RNAs (Tau and Control). After 48 hours there was a strong increase in the number of dead cells from less 2% to >50% in the Tau-knockdown cells and a lesser increase to 38% in sh-ctrl cells (FIG. 1). In agreement, apoptosis was measured at 48% and 30% respectively (FIG. 1C).

[3] = tested on: HP1β clusters in Hela cells; assay: GFP-HP1β clusters per nuclei, confocal microscopy; type: cell-based; settings: TSA 300 nM, 24 h, control Hela cells
Procedure: (A) Single confocal sections of Hela cells transfected with […], with or without Tau4R or TauP301L and treated 24 h later with the TSA (300 nM) for 24 h. Tau C-terminus antibodies and GFP fluorescence were used to visualize total Tau protein and HP1β respectively. Representative images are shown. (B) Quantification of HP1β clusters per nuclei visualized as described previously and realized on three independent experiments. Data are mean±SD *P<0.05 ***P<0.001.
MCF7shctrl, MCF7shTau or transfected Hela cells with Tau4R and GFP-HP1α were fixed in 4% paraformaldehyde for 30 min at room temperature. Permeabilization was carried out in 0.2% Triton X-100 in phosphate-buffered saline for 10 min at room temperature. After 1 h saturation in 2% bovine serum albumin, immunostaining was performed using Tau antibody (recognizing the C-terminal domain of Tau). […] Nuclear staining was performed by adding 1/2000 DAPI in phosphate-buffered saline for 10 min. Slides were then analyzed with a Zeiss LSM710 confocal laser scanning microscope (60× magnification). Images were collected in the Z direction at 0.80 μm intervals and quantifications were realized using the Image J plug-in.
To this end, we first performed GST-pulldown analysis using purified core histones. As shown previously, Tau interacted specifically with core histones as detected by H3, H4, H2A and H2B antibodies (data not shown). […]

For `CC(/C=C/C(=O)NO)=C\[C@@H](C)C(=O)c1ccc(N(C)C)cc1` [TSA, 2,4-Heptadienamide, 7-[4-(dimethylamino)phenyl]-N-hydroxy-4,6-dimethyl-7-oxo-, (2E,4E,6R)-], the “level of acetylated H3 and Tau binding after TSA treatment” value [1] was “No change”, the “lowest dose of TSA inducing cellular responses” value [2] was 100 nM and the “number of HP1 clusters following TSA treatment” value [3] was “decrease”.

From patent publication US20250134952A1, “METHODS FOR IMPROVING THE EFFICACY OF HDAC INHIBITOR THERAPY AND PREDICTING THE RESPONSE TO TREATMENT WITH HDAC INHIBITOR” (INSTITUT NATIONAL DE LA SANTÉ ET DE LA RECHERCHE MÉDICALE, priority 2021, published 2025)
